According to patent publication US8399681B2, “Substituted aminothiazolone indazoles as estrogen related receptor-alpha modulators” (Janssen Pharmaceutica NV, priority 2009, dated 2013):

Each compound was assayed against T1, ERR1 (also known as ERR-α or ERR-1) (Homo sapiens, UniProt P11474) (assay: TR-FRET assay (disruption of co-activator peptide binding)). Settings: 6His-tagged ERR1 LBD, GST-hSRC2 co-activator polypeptide; average of 3 independent experiments.
T1 sequence (P11474 193-421 limits assumed): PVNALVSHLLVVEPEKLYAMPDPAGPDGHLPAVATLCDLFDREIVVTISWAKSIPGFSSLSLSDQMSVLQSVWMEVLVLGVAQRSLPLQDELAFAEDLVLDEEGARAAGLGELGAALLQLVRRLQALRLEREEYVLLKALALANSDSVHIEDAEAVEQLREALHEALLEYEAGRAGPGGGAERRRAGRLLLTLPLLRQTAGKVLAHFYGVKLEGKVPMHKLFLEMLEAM
Format: biochemical
Outline: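 His6-ERR1 LBD (6 nM) with GST-SRC-2 peptide (6 nM), anti-GST Eu cryptate (30 nM) and anti-His XL665 (7.5 nM) in Tris pH 8/KCl/DTT/BSA buffer, equilibrated 4-18 h at 25 °C. Ex 340, em 615/665 nm; hyperbolic dose-response fit, mean of 3 experiments.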

Row | EC50 | Structure (SMILES)
1 | 6 nM | O=C1N=C(N2CC[C@H]2C(=O)O)S/C1=C\c1ccc2c(cnn2Cc2ccc(C(F)(F)F)cc2C(F)(F)F)c1 [Example 49, 1-{5-[1-(2,4-Bis-trifluoromethyl-benzyl)-1H-indazol-5-ylmethylene]-4-oxo-4,5-dihydro-thiazol-2-yl}-azetidine-2-(S)-carboxylic acid]
2 | 23.5 nM | O=C1N=C(N2CCOC[C@@H]2C(=O)O)S/C1=C\c1ccc2c(cnn2Cc2ccc(Cl)cc2C(F)(F)F)c1 [Example 194, 4-[5-({1-[4-Chloro-2-(trifluoromethyl)benzyl]-1H-indazol-5-yl}methylidene)-4-oxo-4,5-dihydro-1,3-thiazol-2-yl]morpholine-3-(R)-carboxylic acid]
3 | 40.9 nM | O=C1N=C(N2CCNC[C@@H]2CO)S/C1=C\c1ccc2c(cnn2Cc2ccc(Cl)cc2C(F)(F)F)c1 [Example 105, 5-[1-(4-Chloro-2-trifluoromethyl-benzyl)-1H-indazol-5-ylmethylene]-2-(2-hydroxymethyl-piperazin-1-yl)-thiazol-4-one]
4 | 47 nM | CC(N[C@H]1CCN(C2=NC(=O)/C(=C/c3ccc4c(cnn4Cc4ccc(C(F)(F)F)cc4C(F)(F)F)c3)S2)C1)C(N)=O (stereo partly drawn) [Example 264, N-2-{(3S)-1-[5-({1-[2,4-Bis(trifluoromethyl)benzyl]-1H-indazol-5-yl}methylidene)-4-oxo-4,5-dihydro-1,3-thiazol-2-yl]pyrrolidin-3-yl}alaninamide]
5 | 3.6 nM | O=C1N=C(N2CCC(C(=O)O)CC2)S/C1=C\c1ccc2c(c1)c(I)nn2Cc1ccc(C(F)(F)F)cc1C(F)(F)F [Example 191, 1-[5-({1-[2,4-Bis(trifluoromethyl)benzyl]-3-iodo-1H-indazol-5-yl}methylidene)-4-oxo-4,5-dihydro-1,3-thiazol-2-yl]piperidine-4-carboxylic acid]
6 | 34 nM | O=C1N=C(N2CCCN(C(=O)OCC(F)(F)F)CC2)S/C1=C\c1ccc2c(cnn2Cc2ccc(Cl)cc2C(F)(F)F)c1 [Example 136, 4-{5-[1-(4-Chloro-2-trifluoromethyl-benzyl)-1H-indazol-5-ylmethylene]-4-oxo-4,5-dihydro-thiazol-2-yl}[1,4]diazepane-1-carboxylic acid 2,2,2-trifluoro-ethyl ester]
7 | 30 nM | CC(=O)N[C@@H]1C[C@H](CO)N(C2=NC(=O)/C(=C/c3ccc4c(cnn4Cc4ccc(C(F)(F)F)cc4C(F)(F)F)c3)S2)C1 [Example 259, N-{1-[(3R,5R)-5-({1-[2,4-Bis(trifluoromethyl)benzyl]-1H-indazol-5-yl}methylidene)-4-oxo-4,5-dihydro-1,3-thiazol-2-yl]-5-(hydroxymethyl)pyrrolidin-3-yl}acetamide]
8 | 7.2 nM | CN1CCN(C2=NC(=O)/C(=C/c3ccc4c(cnn4Cc4ccc(C(F)(F)F)cc4C(F)(F)F)c3)S2)CC1 [Compound 2, 5-[1-(2,4-Bis-trifluoromethyl-benzyl)-1H-indazol-5-ylmethylene]-2-(4-methyl-piperazin-1-yl)-thiazol-4-one]
9 | 96 nM | N[C@@H]1C[C@H](CO)N(C2=NC(=O)/C(=C/c3ccc4c(cnn4Cc4ccc(Cl)cc4C(F)(F)F)c3)S2)C1 [Example 257, 2-[(2R,4R)-4-Amino-2-(hydroxymethyl)pyrrolidin-1-yl]-5-({1-[4-chloro-2-(trifluoromethyl)benzyl]-1H-indazol-5-yl}methylidene)-1,3-thiazol-4(5H)-one]
10 | 10.7 nM | O=C1N=C(N2CCN[C@@H](CO)C2)S/C1=C\c1ccc2c(cnn2Cc2ccc(Cl)cc2C(F)(F)F)c1 [Example 132, 5-[1-(4-Chloro-2-trifluoromethyl-benzyl)-1H-indazol-5-ylmethylene]-2-(3-(R)-hydroxymethyl-piperazin-1-yl)-thiazol-4-one]
11 | 68 nM | O=C1N=C(N2CCN(CCO)CC2)S/C1=C\c1ccc2c(cnn2Cc2ccc(Cl)cc2Cl)c1 [Compound 14, 5-[1-(2,4-Dichloro-benzyl)-1H-indazol-5-ylmethylene]-2-[4-(2-hydroxy-ethyl)-piperazin-1-yl]thiazol-4-one]
12 | 4.2 nM | CN1CCCN(C2=NC(=O)/C(=C/c3ccc4c(cnn4Cc4ccc(C(F)(F)F)cc4C(F)(F)F)c3)S2)CC1 [Example 42, 5-[1-(2,4-Bis-trifluoromethyl-benzyl)-1H-indazol-5-ylmethylene]-2-(4-methyl-[1,4]diazepan-1-yl)-thiazol-4-one]
13 | 36 nM | N#Cc1nn(Cc2ccc(C(F)(F)F)cc2C(F)(F)F)c2ccc(/C=C3\SC(N4CCN[C@H](CO)C4)=NC3=O)cc12 [Example 218, 1-[2,4-Bis(trifluoromethyl)benzyl]-5-({2-[3-(S)-(hydroxymethyl)piperazin-1-yl]-4-oxo-1,3-thiazol-5(4H)-ylidene}methyl)-1H-indazole-3-carbonitrile]
14 | 13 nM | N[C@@H]1CCCN(C2=NC(=O)/C(=C/c3ccc4c(cnn4Cc4ccc(C(F)(F)F)cc4C(F)(F)F)c3)S2)C1 [Example 53, 2-(3-(R)-Amino-piperidin-1-yl)-5-[1-(2,4-bis-trifluoromethyl-benzyl)-1H-indazol-5-ylmethylene]-thiazol-4-one]
15 | 10 nM | COc1ccc(Cn2ncc3cc(/C=C4\SC(N5C[C@@H](O)[C@H](O)C5)=NC4=O)ccc32)c(C(F)(F)F)c1 [Example 32, 2-(3R,4R-Dihydroxy-pyrrolidin-1-yl)-5-[1-(4-methoxy-2-trifluoromethyl-benzyl)-1H-indazol-5-ylmethylene]-thiazol-4-one]
16 | 16 nM | C[C@@H]1CN(C)CCN1C1=NC(=O)/C(=C/c2ccc3c(cnn3Cc3ccc(C(F)(F)F)cc3C(F)(F)F)c2)S1 [Example 192, 5-({1-[2,4-Bis(trifluoromethyl)benzyl]-1H-indazol-5-yl}methylidene)-2-(2-(R),4-dimethylpiperazin-1-yl)-1,3-thiazol-4(5H)-one]
17 | 28 nM | O=C1N=C(N2CCN[C@H](CO)C2)S/C1=C\c1ccc2c(cnn2Cc2ccc(Cl)cc2C(F)(F)F)c1 [Example 206, 5-({1-[4-Chloro-2-(trifluoromethyl)benzyl]-1H-indazol-5-yl}methylidene)-2-[3-(S)-(hydroxymethyl)piperazin-1-yl]-1,3-thiazol-4(5H)-one]
18 | 57 nM | O=C1N=C(N2C[C@H](O)C[C@H]2C(=O)O)S/C1=C\c1ccc2c(cnn2Cc2ccc(Cl)cc2C(F)(F)F)c1 [Compound 11, 1-{5-[1-(4-Chloro-2-trifluoromethyl-benzyl)-1H-indazol-5-ylmethylene]-4-oxo-4,5-dihydro-thiazol-2-yl}-4-(R)-hydroxy-pyrrolidine-2-(S)-carboxylic acid]
19 | 57.5 nM | N#Cc1ccc(Cn2ncc3cc(/C=C4\SC(N5CCN(CCO)CC5)=NC4=O)ccc32)c(C(F)(F)F)c1 [Compound 9, 4-(5-{2-[4-(2-Hydroxy-ethyl)-piperazin-1-yl]-4-oxo-4H-thiazol-5-ylidenemethyl}-indazol-1-ylmethyl)-3-trifluoromethyl-benzonitrile]
20 | 139 nM | O=C1N=C(N2CCC(C(=O)O)CC2)S/C1=C\c1ccc2c(cnn2Cc2ccc(F)cc2C(F)(F)F)c1 [Example 176, 1-{5-[1-(4-Fluoro-2-trifluoromethyl-benzyl)-1H-indazol-5-ylmethylene]-4-oxo-4,5-dihydro-thiazol-2-yl}-piperidine-4-carboxylic acid]
21 | 11 nM | CN1CCN(C2=NC(=O)/C(=C/c3ccc4c(cnn4Cc4ccc(C5CC5)cc4C(F)(F)F)c3)S2)CC1 [Example 27, 5-[1-(4-Cyclopropyl-2-trifluoromethyl-benzyl)-1H-indazol-5-ylmethylene]-2-(4-methyl-piperazin-1-yl)-thiazol-4-one]
22 | 21 nM | NC(=O)C1CCN(C2=NC(=O)/C(=C/c3ccc4c(cnn4Cc4ccc(C(F)(F)F)cc4C(F)(F)F)c3)S2)CC1 [Example 106, 1-{5-[1-(2,4-Bis-trifluoromethyl-benzyl)-1H-indazol-5-ylmethylene]-4-oxo-4,5-dihydro-thiazol-2-yl}-piperidine-4-carboxylic acid amide]
23 | 13 nM | O=C1CCN(C2=NC(=O)/C(=C/c3ccc4c(cnn4Cc4ccc(Cl)cc4C(F)(F)F)c3)S2)CCN1 [Example 114, 1-{5-[1-(4-Chloro-2-trifluoromethyl-benzyl)-1H-indazol-5-ylmethylene]-4-oxo-4,5-dihydro-thiazol-2-yl}-[1,4]diazepan-5-one]
24 | 38.8 nM | C[C@@H]1CN(C2CN(C3=NC(=O)/C(=C/c4ccc5c(cnn5Cc5ccc(Cl)cc5C(F)(F)F)c4)S3)C2)C[C@H](C)O1 [Example 203, 5-({1-[4-Chloro-2-(trifluoromethyl)benzyl]-1H-indazol-5-yl}methylidene)-2-[3-(2,6-cis-dimethylmorpholin-4-yl)azetidin-1-yl]-1,3-thiazol-4(5H)-one]
25 | 7 nM | CN1CCN(C2=NC(=O)/C(=C/c3ccc4c(cnn4Cc4ccc(Cl)cc4C(F)(F)F)c3)S2)CC1(C)C [Example 221, 5-({1-[4-Chloro-2-(trifluoromethyl)benzyl]-1H-indazol-5-yl}methylidene)-2-(3,3,4-trimethylpiperazin-1-yl)-1,3-thiazol-4(5H)-one]
26 | 19 nM | O=C1N=C(N2CCC(N3CCCC(O)C3)CC2)S/C1=C\c1ccc2c(cnn2Cc2ccc(Cl)cc2C(F)(F)F)c1 (stereo not drawn) [Example 166, 5-[1-(4-Chloro-2-trifluoromethyl-benzyl)-1H-indazol-5-ylmethylene]-2-(3-hydroxy-[1,4′]bipiperidinyl-1′-yl)-thiazol-4-one]
27 | 4 nM | O=C1N=C(N2CCO[C@@H](CO)C2)S/C1=C\c1ccc2c(cnn2Cc2ccc(O)cc2C(F)(F)F)c1 [Example 249, 2-[(2R)-2-(Hydroxymethyl)morpholin-4-yl]-5-({1-[4-hydroxy-2-(trifluoromethyl)benzyl]-1H-indazol-5-yl}methylidene)-1,3-thiazol-4(5H)-one]
